The values that follow come from US10973840B2, “Methods of sensitizing tumor cells to weak base chemotherapeutic drugs” (SOCPRA SCIENCES SANTÉ ET HUMAINES S.E.C., priority 2017, dated 2021).

The structures appear in SMILES notation.

Assay [1] has as its system HT-1080 tumor xenografts. In words: Chorioallantoic membrane (CAM) xenograft assay, HT-1080. Format: in vivo, chick embryo. The conditions noted are these: HT-1080 on CAM. As to the method:
(§1) Fertilized eggs from white leghorn chicken were obtained from Public Health Agency of Canada (Nepean, ON). Ethics approval was obtained from the Ethics Committee on Animal Research of the University of Sherbrooke and all experimental procedures involving embryos were conducted in accordance with the regulations of the Canadian Council on Animal Care. Eggs were incubated in an Ova-Easy egg incubator (Brinsea) at 37° C. with 60% humidity. At Day 3, eggs were cracked as described^67. At Day 9, HT-1080 and MDA-MB-231 cell suspensions (1×10^6 and 2×10^6 cells, respectively) were mixed (1:1) with growth factor reduced Matrigel (BD Biosciences) in a total volume of 20 μl. Cell grafts were placed on top of the CAM and eggs were returned to the incubator for 96 h until Day 13 (n>6 chick embryos per cell line). When mentioned, 50 μl of Dox were added topically to the formed tumors (Day 13 after tumor cell grafting). At Day 16, chick embryos were euthanatized by decapitation. Tumors were removed and tumor volumes were calculated using the formula: (Dd^2/3). For RNA quantification, tumors were immediately snap-frozen in liquid nitrogen and kept at −80° C. until RNA extraction using the Trizol reagent.
(§2) To determine whether these observations were of relevance to tumor therapy in vivo, the inventors used an ex ovo chorioallantoic membrane (CAM) xenograft model in live chicken embryos^40. MDA-MB-231 or HT-1080 cells, or cells expressing either the NHE6^527-588 competing fragment or its scrambled counterpart were inoculated onto the CAM of 9-day-old chick embryos. After allowing 3 days for cells to engraft, tumors were treated with Doxorubicin or PBS. Four days later, chick embryos were euthanized, and tumors were removed for analysis (FIG. 10A). To first ascertain that tumors implanted in CAM developed hypoxia, total mRNA was extracted from tumors generated by untransfected HT-1080 cells and gene expression of the hypoxic markers CA9, GLUT1 and MCT4 was measured by qPCR. […]

Assay [2] has as its system MDA-MB-231 tumor xenografts. Put plainly: Chorioallantoic membrane (CAM) xenograft assay, MDA-MB-231. The class given is in vivo, chick embryo. The following applies: MDA-MB-231 on CAM. As to the method: as §1, §2

Regarding `COc1cccc2c1C(=O)c1c(O)c3c(c(O)c1C2=O)C[C@@](O)(C(=O)CO)C[C@@H]3O[C@H]1C[C@H](N)[C@H](O)[C@H](C)O1` [Dox, doxorubicin], the tumor growth entry is on record as “unaffected” in assay [1] (0.5 μM Dox), “significantly reduced” in assay [1] (2 μM Dox topical), “unaffected” in assay [2] (1 μM Dox) and “significantly reduced” in assay [2] (5 μM Dox topical).
